According to the supplement of paper PMC9663587:

Tests used:
Experiment in all cases: area over the GR curve, 72 h; higher = more effect;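 note: Dye Drop or Deep Dye Drop imaging of viable cells in 384-well plates (Hoechst nuclei, LIVE/DEAD dye), nine half-log doses, GR normalized to DMSO controls and time-zero plates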
[1] = test system: HS578T
[2] = test system: CAL51
[3] = test system: 184A1
[4] = test system: SUM229PE
[5] = test system: CAMA1
[6] = test system: EFM19
[7] = test system: HCC1806
[8] = test system: ZR751
[9] = test system: MCF7
[10] = test system: CAL851
[11] = test system: HCC70
[12] = test system: SUM44PE

Compound | area over the GR curve [1] | area over the GR curve [2] | area over the GR curve [3] | area over the GR curve [4] | area over the GR curve [5] | area over the GR curve [6] | area over the GR curve [7] | area over the GR curve [8] | area over the GR curve [9] | area over the GR curve [10] | area over the GR curve [11] | area over the GR curve [12]
CCC(=O)Nc1ccc(C(=O)Nc2ccc(Nc3ncc4c(n3)N(C)c3ccc(C)cc3C(=O)N4C)cc2)cc1 [FMF-03-145-1] | 1.07 GR | 0.394 GR | 1 GR | 1.06 GR | 0.393 GR | 0.341 GR | 1.08 GR | 0.391 GR | 0.957 GR | 0.626 GR | 1.31 GR | 1.15 GR
COc1cc(N2CCN(C)CC2)ccc1Nc1ncc2c(n1)N(C)c1ccccc1C(=O)N2CC(F)(F)F [FMF-03-146-1] | 0.0103 GR | 0.0396 GR | 0.0018 GR | 0.0104 GR | -0.0223 GR | 0.0185 GR | 0.0215 GR | 0.0552 GR | 0.0454 GR | 0.0805 GR | -0.0097 GR | 0.016 GR
CN1CC[C@H](c2c(O)cc(O)c3c(=O)cc(-c4ccccc4Cl)oc23)[C@H](O)C1 [Flavopiridol] (max 1 µM) | 0.254 GR | 0.242 GR | 0.418 GR | 0.3 GR | 0.253 GR | 0.191 GR | 0.257 GR | 0.152 GR | 0.36 GR | 0.3 GR | 0.415 GR | 0.406 GR
CC(C)n1nc(-c2ccc3oc(N)nc3c2)c2c(N)ncnc21 [INK128/MLN0128] (max 3.162 µM) | 0.623 GR | 0.553 GR | 0.581 GR | 0.379 GR | 0.64 GR | 0.682 GR | 0.39 GR | 0.679 GR | 0.726 GR | 0.626 GR | 0.702 GR | 0.781 GR
CC(C)NC[C@@H](C(=O)N1CCN(c2ncnc3c2[C@H](C)C[C@H]3O)CC1)c1ccc(Cl)cc1 [Ipatasertib/GDC0068] (max 10 µM) | 0.246 GR | 0.224 GR | 0.12 GR | 0.1 GR | 0.412 GR | 0.185 GR | 0.0145 GR | 0.0518 GR | 0.26 GR | 0.166 GR | 0.488 GR | 0.412 GR
CN(C)C(=O)c1cc2cnc(Nc3ccc(N4CCNCC4)cn3)nc2n1C1CCCC1 [LEE011/Ribociclib] (max 10 µM) | 0.351 GR | 0.299 GR | 0.449 GR | 0.221 GR | 0.651 GR | 0.315 GR | 0.141 GR | 0.258 GR | 0.442 GR | 0.0857 GR | -0.0535 GR | 0.357 GR
CCNC(=O)c1noc(-c2cc(C(C)C)c(O)cc2O)c1-c1ccc(CN2CCOCC2)cc1 [Luminespib/NVP-AUY922] (max 1 µM) | 0.67 GR | 0.704 GR | 0.539 GR | 0.729 GR | 0.535 GR | 0.35 GR | 0.539 GR | 0.362 GR | 0.513 GR | 0.75 GR | 0.732 GR | 0.804 GR
CCOc1cc2ncc(C#N)c(Nc3ccc(OCc4ccccn4)c(Cl)c3)c2cc1NC(=O)/C=C/CN(C)C [Neratinib/HKI272] (max 3.162 µM) | 0.202 GR | 0.091 GR | 0.421 GR | 0.24 GR | 0.0703 GR | 0.0236 GR | 0.191 GR | 0.0964 GR | 0.142 GR | 0.538 GR | 0.317 GR | 0.568 GR
O=C(c1cc(Cc2n[nH]c(=O)c3ccccc23)ccc1F)N1CCN(C(=O)C2CC2)CC1 [Olaparib/AZD2281] (max 10 µM) | 0.0997 GR | 0.116 GR | 0.0908 GR | 0.0365 GR | 0.0527 GR | 0.0595 GR | 0.0953 GR | 0.0567 GR | 0.0554 GR | 0.135 GR | -0.0522 GR | -0.0366 GR
CC(=O)O[C@H]1C(=O)[C@@]2(C)[C@H]([C@H](OC(=O)c3ccccc3)[C@]3(O)C[C@H](OC(=O)[C@H](O)[C@@H](NC(=O)c4ccccc4)c4ccccc4)C(C)=C1C3(C)C)[C@]1(OC(C)=O)CO[C@@H]1C[C@@H]2O [Paclitaxel] (max 1 µM) | 0.954 GR | 0.669 GR | 0.75 GR | 0.91 GR | 0.953 GR | 0.874 GR | 0.838 GR | 0.511 GR | 0.772 GR | 0.793 GR | 0.977 GR | 0.953 GR
CS(=O)(=O)N1CCN(Cc2cc3nc(-c4cccc5[nH]ncc45)nc(N4CCOCC4)c3s2)CC1 [Pictilisib/GDC0941] (max 10 µM) | 0.311 GR | 0.19 GR | 0.276 GR | 0.137 GR | 0.262 GR | 0.439 GR | 0.118 GR | 0.324 GR | 0.506 GR | 0.36 GR | 0.573 GR | 0.392 GR
O=C1NC(=NCc2cccs2)SC1=Cc1ccc2ncccc2c1 [R0-3306] (max 10 µM) | 0.139 GR | 0.067 GR | 0.207 GR | 0.0926 GR | 0.0858 GR | 0.132 GR | 0.085 GR | 0.0473 GR | 0.0991 GR | 0.159 GR | 0.0814 GR | 0.276 GR
CNCc1ccc(-c2[nH]c3cc(F)cc4c3c2CCNC4=O)cc1 [Rucaparib] (max 10 µM) | 0.0974 GR | 0.0888 GR | 0.0986 GR | 0.047 GR | 0.0981 GR | 0.0332 GR | 0.117 GR | 0.0837 GR | 0.0771 GR | 0.203 GR | -0.0415 GR | 0.0038 GR
CC1(N)CCN(c2cnc(-c3cccc(Cl)c3Cl)c(N)n2)CC1 [SHP099] (max 10 µM) | 0.142 GR | 0.03 GR | 0.118 GR | -0.0033 GR | 0.0525 GR | -0.0009 GR | -0.0155 GR | 0.0364 GR | 0.0308 GR | 0.137 GR | 0.074 GR | 0.075 GR
CN1CCN(CCOc2cc(OC3CCOCC3)c3c(Nc4c(Cl)ccc5c4OCO5)ncnc3c2)CC1 [Saracatinib/AZD0530] (max 10 µM) | 0.159 GR | 0.227 GR | 0.0722 GR | 0.131 GR | 0.0262 GR | 0.149 GR | 0.233 GR | 0.163 GR | 0.322 GR | 0.184 GR | 0.573 GR | 0.112 GR
Cc1cc(C(C)Nc2ccccc2)c2nc(N3CCOCC3)cc(=O)n2c1 (configuration not stated) [TGX221] (max 10 µM) | 0.0668 GR | -0.0117 GR | 0.0024 GR | -0.0167 GR | 0.0019 GR | 0.0431 GR | -0.02 GR | 0.354 GR | -0.0083 GR | -0.0591 GR | 0.467 GR | -0.155 GR
CN(C)C/C=C/C(=O)Nc1ccc(C(=O)Nc2cccc(Nc3ncc(Cl)c(-c4c[nH]c5ccccc45)n3)c2)cc1 [THZ1] (max 1 µM) | 0.518 GR | 0.161 GR | 0.528 GR | 0.504 GR | 0.459 GR | 0.159 GR | 0.367 GR | 0.162 GR | 0.514 GR | 0.639 GR | 0.762 GR | 0.706 GR
CN(C)C/C=C/C(=O)Nc1ccc(C(=O)N2CCC[C@@H](Nc3ncc(Cl)c(-c4c[nH]c5ccccc45)n3)C2)cc1 [THZ531] (max 1 µM) | 0.377 GR | 0.0896 GR | 0.214 GR | 0.132 GR | 0.241 GR | 0.167 GR | 0.134 GR | 0.124 GR | 0.344 GR | 0.36 GR | 0.462 GR | 0.177 GR
CN(C)C/C=C/C(=O)Nc1ccc(C(=O)Nc2cccc(Nc3cc(-c4c[nH]c5ccccc45)ncn3)c2)cc1 [THZ-P1-2] (max 10 µM) | -0.017 GR | 0.0155 GR | 0.351 GR | 0.149 GR | 0.309 GR | 0.131 GR | 0.199 GR | 0.0386 GR | 0.292 GR | 0.217 GR | 0.326 GR | 0.619 GR
Cc1nc(-c2cn3c(n2)-c2ccc(-c4cnn(C(C)(C)C(N)=O)c4)cc2OCC3)n(C(C)C)n1 [Taselisib/GDC0032] (max 10 µM) | 0.374 GR | 0.546 GR | 0.457 GR | 0.397 GR | 0.245 GR | 0.944 GR | 0.258 GR | 0.393 GR | 0.768 GR | 0.55 GR | 0.548 GR | 1.02 GR
O=C1NC(=O)[C@@H](c2cn3c4c(cccc24)CCC3)[C@@H]1c1c[nH]c2ccccc12 [Tivantinib/ARQ197] (max 10 µM) | 0.437 GR | 0.359 GR | 0.582 GR | 0.661 GR | 0.526 GR | 0.361 GR | 0.446 GR | 0.255 GR | 0.453 GR | 0.518 GR | 0.474 GR | 0.762 GR
Nc1ccc(-c2ccc3ncc4ccc(=O)n(-c5cccc(C(F)(F)F)c5)c4c3c2)cn1 [Torin2] (max 1 µM) | 0.566 GR | 0.456 GR | 0.46 GR | 0.345 GR | 0.507 GR | 0.501 GR | 0.388 GR | 0.438 GR | 0.603 GR | 0.54 GR | 0.645 GR | 0.737 GR
CC[C@@H]1C(=O)N(C)c2cnc(Nc3ccc(C(=O)N[C@H]4CC[C@H](N5CCN(CC6CC6)CC5)CC4)cc3OC)nc2N1C(C)C [Volasertib/BI6727] (max 1 µM) | 0.82 GR | 0.679 GR | 0.54 GR | 0.605 GR | 0.674 GR | 0.741 GR | 0.726 GR | 0.263 GR | 0.605 GR | 0.717 GR | 0.579 GR | 0.623 GR
O=C(CCCCCCC(=O)Nc1ccccc1)NO [Vorinostat] (max 10 µM) | 0.269 GR | 0.186 GR | 0.188 GR | 0.153 GR | 0.383 GR | 0.162 GR | 0.24 GR | 0.0343 GR | 0.349 GR | 0.201 GR | 0.38 GR | 0.181 GR
C=CC(=O)Nc1ccc(C(=O)Nc2[nH]nc3c2CN(C(=O)N[C@H](CN(C)C)c2ccccc2)C3(C)C)cc1 [YKL-5-124] (max 10 µM) | 0.815 GR | 0.655 GR | 0.929 GR | 0.744 GR | 0.968 GR | 0.8 GR | 1.01 GR | 0.717 GR | 0.806 GR | 1.2 GR | 1.46 GR | 1.16 GR
CN1CCN(C(=O)c2ccc3cc(CCNc4ncnc5ccc(C#N)cc45)ccc3c2)CC1 [senexin b] (max 10 µM) | 0.139 GR | 0.119 GR | 0.107 GR | 0.21 GR | 0.351 GR | 0.219 GR | 0.0969 GR | 0.05 GR | 0.249 GR | 0.226 GR | 0.209 GR | 0.369 GR
